{"source": "patent US20080200556A1", "about": "“Amine Compounds And Inhibiting Neurotrasmitter Reuptake” (MAYO FOUNDATION FOR MEDICAL EDUCATION AND RESEARCH, priority 2004, published 2008)", "key": {"[1]": {"molecular_target": "human dopamine transporter (hDAT) (Homo sapiens, UniProt Q01959)", "test": "biochemical", "quoted_text": "(§1) The cells were incubated in 10% CO2, 90% air at 37° C. and 100% humidity. The hNET cell cultures contained 250 μg/mL geneticin sulfate. The cells were grown to 70-80% confluency prior to harvesting.\n(§2) Cell membranes containing hSERT, hNET, or hDAT were prepared from the cell lines to assay ligand binding for each of the transporters. […] The washed cells were incubated for 5 minutes at 37° C. in 10 mL solution 1 containing 100 mM ethylene glycol-bis N,N,N′,N′-tetraacetic acid (EGTA). The cells were then scraped from the flask surface with a rubber spatula, placed into a centrifuge tube, and collected by centrifugation at 1000×g for 5 minutes at 4° C. The resulting supernatant was discarded, and the cell pellet was resuspended in 0.5 to 1.0 mL of the appropriate binding buffer (described below). The resuspended cell pellet was homogenized using a Polytron for 10 seconds at setting 6. The resulting homogenate was centrifuged at about 36,000×g for 10 minutes at 4° C. The supernatant was discarded, and the pellet was resuspended in the same volume of the appropriate binding buffer and centrifuged again. […]\nTo assess binding to the cloned HDAT, cells expressing HDAT were homogenized in 50 mM Tris-HCl with 120 mM NaCl (pH 7.4). […] Radioactivity was measured with a Beckman liquid scintillation counter (LS 5000TD). […]"}, "Male Sprague-Dawley rats": {"system": "Male Sprague-Dawley rats", "test": "Forced swim test in rats", "type": "in vivo, rat", "conditions": "i.p., imipramine 15 mg/kg, PRC025 10 mg/kg; for Time immobile (Counts/5 min) / Time swimming (Counts/5 min): mean ±SEM, *P < 0.05 vs. saline", "method": "When rats are placed in a cylinder of water from which they cannot escape, they will remain immobile in the water for the majority of the test.\nWater was changed between trials, and the procedure involved a pretest and a 5-minute test separated by 24 hours. During the pretest, rats (adapted to the experimental room for no less than 1 hour) were placed in the cylinder for 15 minutes. Following this initial exposure, the rats were dried with towels and transferred to a “drying cage” situated under a warming lamp. […] The following day, rats were transferred to the experimental room and acclimated for at least 1 hour.\nThe rat was considered immobile when floating motionless or making only those movements necessary to keep its head above the surface of the water. Scores for each behavior (swimming or immobility) were expressed as total counts per […]. Statistical analysis was performed using ANOVA followed by the Tukey test for post-hoc comparisons."}, "Male C57B1/6J mice": {"system": "Male C57B1/6J mice", "test": "Tail suspension test in mice", "type": "in vivo, mouse", "conditions": "PRC025 10 mg/kg; for Time immobile (Counts/6 min) / Time mobile (Counts/6 min): i.p. 30 minutes before testing, imipramine 15 mg/kg (table), mean ±SEM, *P < 0.05 vs. saline", "text": "When mice are suspended by their tail, there is an initial period of agitation, followed by immobility. This test identifies antidepressant compounds, which decrease the duration of immobility.\nMice were then individually suspended by their tails 35 cm above the tabletop using an adhesive tape placed 1 cm from the tip of the tail. Behavior was scored every 5 seconds throughout the 6-minute test as either mobile or immobile. Mice were considered immobile only when hanging passively and completely motionless. Scores for each behavior were expressed as total counts per […]. Statistical analysis was performed using ANOVA followed by the Tukey test for post-hoc comparisons."}, "[2]": {"molecular_target": "T1, human serotonin transporter (hSERT) (Homo sapiens, UniProt P31645)", "T1 sequence (P31645 whole entry)": "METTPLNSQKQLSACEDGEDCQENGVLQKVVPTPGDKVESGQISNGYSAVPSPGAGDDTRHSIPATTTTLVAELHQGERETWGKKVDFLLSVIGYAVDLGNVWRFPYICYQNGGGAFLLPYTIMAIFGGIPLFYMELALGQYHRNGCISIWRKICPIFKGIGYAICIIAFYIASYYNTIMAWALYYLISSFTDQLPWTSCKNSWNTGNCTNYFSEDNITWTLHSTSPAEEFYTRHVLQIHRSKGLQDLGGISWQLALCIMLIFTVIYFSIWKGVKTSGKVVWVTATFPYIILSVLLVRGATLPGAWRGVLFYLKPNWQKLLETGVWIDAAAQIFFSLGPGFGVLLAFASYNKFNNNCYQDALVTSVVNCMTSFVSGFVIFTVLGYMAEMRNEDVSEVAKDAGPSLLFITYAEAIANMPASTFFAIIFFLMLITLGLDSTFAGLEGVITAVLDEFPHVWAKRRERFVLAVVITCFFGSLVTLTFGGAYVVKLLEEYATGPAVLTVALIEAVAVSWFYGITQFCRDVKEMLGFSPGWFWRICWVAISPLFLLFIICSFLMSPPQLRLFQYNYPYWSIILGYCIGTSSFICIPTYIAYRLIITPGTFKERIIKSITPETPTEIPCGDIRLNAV", "quoted_text": "as §1, §2\n(§3) Radioligand binding assays for the indicated transporters were performed as follows. […] Radioactivity was measured with a Beckman liquid scintillation counter (LS 5000TD). […]"}, "[3]": {"molecular_target": "T1, human serotonin transporter (hSERT)", "test": "biochemical", "quoted_text": "as §1, §2, §3"}}}
{"smiles": "CNCC(c1ccc2ccccc2c1)C(O)c1ccccc1", "note": "(racemic) [Compound A, (2RS,3RS)-N-methyl-3-hydroxy-2-(2′-naphthyl)-3-phenylpropylamine]", "values": [{"measurement": "Kd", "setting": "[1]", "result": 0.134, "unit": "µM"}]}
{"smiles": "CN(C)CC(c1ccc2ccccc2c1)C(O)C1CCCCC1", "note": "(racemic) [PRC025, (2RS,3SR)-N,N-dimethyl-3-cyclohexyl-3-hydroxy-2-(2′-naphthyl)propylamine]", "values": [{"measurement": "Time immobile (Counts/5 min)", "setting": "Male Sprague-Dawley rats", "result": "28 ± 3* Counts/5 min"}, {"measurement": "Time swimming (Counts/5 min)", "setting": "Male Sprague-Dawley rats", "result": "30 ± 3* Counts/5 min"}, {"measurement": "Time immobile (Counts/6 min)", "setting": "Male C57B1/6J mice", "result": "12 ± 3* Counts/6 min"}, {"measurement": "Time mobile (Counts/6 min)", "setting": "Male C57B1/6J mice", "result": "60 ± 3* Counts/6 min"}, {"measurement": "binding to hSERT (in words)", "setting": "[2]", "result": "strong binding"}, {"measurement": "Kd", "setting": "[3]", "result": 0.0041, "unit": "µM"}, {"measurement": "Kd", "setting": "[1]", "result": 0.054, "unit": "µM"}]}
{"smiles": "CN(C)CCCN1c2ccccc2CCc2ccccc21", "note": "[Imipramine, imipramine]", "values": [{"measurement": "swimming behavior versus saline (in words)", "setting": "Male Sprague-Dawley rats", "result": "statistically more swimming behavior than rats treated with saline"}, {"measurement": "Time immobile (Counts/5 min)", "setting": "Male Sprague-Dawley rats", "result": "23 ± 3* Counts/5 min"}, {"measurement": "Time swimming (Counts/5 min)", "setting": "Male Sprague-Dawley rats", "result": "37 ± 3* Counts/5 min"}, {"measurement": "Time immobile (Counts/6 min)", "setting": "Male C57B1/6J mice", "result": "21 ± 4* Counts/6 min"}, {"measurement": "Time mobile (Counts/6 min)", "setting": "Male C57B1/6J mice", "result": "51 ± 4* Counts/6 min"}, {"measurement": "mobile behavior versus saline (in words)", "setting": "Male C57B1/6J mice; i.p., imipramine", "result": "statistically more mobile behavior than mice treated with saline"}]}
